From US5695738A, “Steroidal C-glycosides” (Glycomed Incorporated, priority 1995, dated 1997)

System: murine skin inflammation; swelling caused by AA
Experiment: arachidonic acid (AA), murine skin inflammation (ear) model, topical administration
Assay type: in vivo
Conditions: for percent inhibition of swelling caused by AA alone: 10 uL of 100 mg/mL in CHCl3 (lithocholic acid in CHCl3:CH3OH 1:1) applied to the ear immediately after AA, 90 minutes; for % Inhibition of Swelling: topical, 1 mg applied to the ear immediately after arachidonic acid, 6 mm ear disk weighed at 90 minutes, average of two experiments (Table 1)
Protocol: Briefly, the compounds at an appropriate concentration are dissolved in a suitable solvent, and applied to a rodent ear immediately following application of arachidonic acid (AA). A control of AA alone is run. About 90 minutes later, a 6 mm disk of each ear is removed and weighed. The percent inhibition of swelling caused by AA alone is calculated for the steroidal C-glycoside derivatives of the invention and compared to other steroids.
Using the arachidonic acid (AA), murine skin inflammation model, described by Harris, R. R. et al. (Skin Pharmacol 1990; 3:29-40) the anti-inflammatory activity of (5) was tested. For comparison, Lithocholic acid and Methyl lithocholate, were also tested. Compounds were dissolved at 100 mg/mL in CHCl3, except for lithocholic acid which was dissolved in CHCl3 :CH3 OH (1:1); 10 uL of each compound was applied to the ear immediately following arachidonic acid (AA). AA was applied alone, or followed immediately with methyl lithocholate, ketone (12) alkene (11) or compound (5). 90 minutes later, a 6 mm disk of each ear was removed and weighed.

Row | SMILES | percent inhibition of swelling caused by AA alone | % Inhibition of Swelling
1 | COC(=O)CC[C@@H](C)[C@H]1CC[C@H]2[C@@H]3CC[C@@H]4C[C@H](OCC(O)(CO)C[C@@H]5O[C@@H](C)[C@@H](O)[C@@H](O)[C@@H]5O)CC[C@]4(C)[C@H]3CC[C@]12C (stereo partly drawn) [compound (5), 1-[3-O-(Lithocholic acid)]-2-(alpha-L-C-methylfucopyranose)-2',3'-propanediol methyl ester] | about 48.5% | 48.5%
2 | COC(=O)CC[C@@H](C)[C@H]1CC[C@H]2[C@@H]3CC[C@@H]4C[C@H](O)CC[C@]4(C)[C@H]3CC[C@]12C [methyl lithocholate] | about 17.5% | 17.5%
3 | C[C@H](CCC(=O)O)[C@H]1CC[C@H]2[C@@H]3CC[C@@H]4C[C@H](O)CC[C@]4(C)[C@H]3CC[C@]12C [Lithocholic acid] | ~22.5% | 30.5%
